We go through six compounds from US8287893B2, “Bioactive agrichemical compositions and use thereof” (Sciessent LLC, priority 2007, dated 2012).

Like-named read-outs stand apart in the source and are kept apart here.

In assay [1] the test system is Saccharomycetes Cerevisiae (Fleishmann's Bakers yeast). Put plainly: Yeast growth suppression, turbidity of yeast suspension in growth medium. The assay is classed as cell-based. On the set-up: key to turbidity T0 / turbidity T18 / change in turbidity T48 − T0 / turbidity T48 / turbidity T72 / turbidity T96 / change in turbidity T18 − T0 / change in turbidity T72 − T0 / change in turbidity T96 − T0: turbidity in NTU. The method, then:
Saccharomycetes Cerevisiae was selected as a test organism as it is generally accepted in the industry as an indicator or surrogate organism for a wide variety of fungi. In each of these experiments, the same general procedure was followed unless otherwise indicated.
Experimental Detail: A growth medium was prepared by adding 10 grams of nutrient medium (Difco Sabouraud dextrose broth from BD of Franklin Lakes, N.J., USA) to 300 ml of distilled water. Fleishmann's Bakers yeast was then added to the growth medium while mixing using a magnetic stirrer until a uniform dispersion was obtained having an initial turbidity of between about 50 and 100 NTU as measured using a HF Instruments DRT 100B Turbidity Meter. Once the appropriate dispersion was obtained, 20 ml aliquots were then dispensed, with continued mixing, into 40 ml borosilicate glass vials with Teflon lined caps (VWR International Cat. No. 15900-004). The system/component to be evaluated was then added to the vial and intimately shaken to ensure a good, substantially homogeneous mixture. The turbidity of each mixture was then determined and the vial transferred to an incubator at 30° C. Each vial was periodically removed from the incubator and the mixture in the vials assessed for turbidity: the specific timing for such evaluation was as set forth in the discussion of the experiments and the accompanying tables.
In each experiment, unless otherwise specified, a 2 ml aqueous solution containing the specified bioactive system or component thereof was added to the 20 ml yeast suspension and mixed thoroughly. Typically the surfactants were added separately in a concentrated solution in water; however, the volume added was negligible: a fraction of an ml. For convenience in understanding efficacy levels, the amounts or concentrations of the various components presented in each of the following tables and experiments are of the diluted material in the test vial: not of the concentrate added to the test vial. Furthermore, the concentrations presented are on the basis of a 20 ml total volume, not the actual 22+ ml volume. Multiplying each of the listed concentrations by 0.9 (or 0.95 with those compositions using 1 ml aqueous solutions) will provide a more accurate assessment of the concentrations of the various components evaluated, i.e., a 5 ppm silver concentration is actually closer to 4.5 ppm. Finally, for those vials to which no bioactive system or component thereof was added (the controls) or which only contained the surfactants, 2 ml of additional growth medium was added to ensure relative equivalent dilutions of the yeast.
In the tables below, the results are presented as the actual turbidity readings (NTU) with a sub-table presenting the change or delta in NTU values. Given the nature of the system, changes in turbidity are reflective of the relative performance/bioefficacy of the bioactive systems and their components.

Assay [2] has as its system E. amylovora 153N. Put plainly: Fire blight on Snow Drift crabapple trees (Example 287). The assay is classed as in vivo. The following applies: for cankers, result in words / shoot blight incidence, result in words: day 63. As for the experimental part:
A study of the bioefficacy of the various agrichemical compositions, including bioactive acid solutions and blends thereof with an antibiotic agrichemical, were evaluated to assess their bioefficacy against fire blight on crabapples. The study was conducted on 5 year old Snow Drift crabapple trees, with each of the compositions being applied to ten trees in two-subplots of five trees, four different times: at 100% bloom-day 1, a second application was made on day 4, a third on day 11 and a final treatment on day 19. The trees were inoculated with E. amylovora […] at a concentration of 4×10^6 cells per milliliter on day 1, following drying of the treatment, with the inoculation being repeated on day 13. Evaluation for fire blight was completed on 100 blossoms for each of the subplots on day 12, day 19 and day 27. Additionally, the incidence of shoot infection and the length of […] evaluated on day 63. The test compositions were prepared by forming solutions of the bioactive agents. Two different dilutions of the MI2 bioactive were evaluated; the first employing 94.46 ml/gallon (25 ml/l) of water (5 ppm of each metal) and the second 188.9 ml/gallon (50 ml/l) of water (10 ppm of each metal). […] Finally, copper hydroxide was diluted at a rate of 1 lb/gallon (119.8 g/l). Each of the compositions and blends were spray applied at a rate of 50 gallons (189.3 l) pre acre. The results are presented as the mean of the counts.

The mark [3] stands for this setting: Table 12, surfactant ~0.05 wt % neat, Metal ppm 0.
Setting [4] is: Table 12, surfactants ~0.05 wt %, Metal ppm 2.5 each of Cu, Ag, Zn, ~0.2% citric acid.
The mark [5] stands for this setting: Table 12, surfactants ~0.05 wt %, Metal ppm 5 each of Cu, Ag, Zn, ~0.4% citric acid.

Consider `CCCCCCCCCCCCOS(=O)(=O)[O-].[Na+]`, for which, in assay [1] (setting [3]), the “change in turbidity T48 − T0” value is 610, the “turbidity T0” value is recorded as 48 and the “turbidity T18” value came out at 495. Moreover, in assay [1] (setting [4]), the “change in turbidity T18 − T0” value was found to be 2, the “change in turbidity T48 − T0” value turned out to be 0, the “change in turbidity T72 − T0” value turned out to be 0 and the “change in turbidity T96 − T0” value is −1. Moreover, in assay [1] (setting [4]), the “turbidity T0” value came out at 88, the “turbidity T18” value was 90, the “turbidity T48” value is 88 and the “turbidity T72” value amounted to 88. Moreover, in assay [1] (setting [4]), the “turbidity T96” value worked out at 87. In assay [1] (setting [5]), the “change in turbidity T18 − T0” value worked out at 13, the “change in turbidity T48 − T0” value is on record as 2, the “change in turbidity T72 − T0” value stood at 7 and the “change in turbidity T96 − T0” value stood at 1.
Turning to copper citrate [Example 13], in assay [1], the “Change in Turbidity from T0 (delta NTU) T 96 Hours” value (“Change … (delta NTU) T 96 Hours” for short) was found to be 1054.4 NTU, the “Change in Turbidity from T0 (delta NTU) T 18 hours” value (from here on “Change … (delta NTU) T 18 hours”) is listed as 894.4 NTU, the “Change in Turbidity from T0 (delta NTU) T 24 hours” value (from here on “Change … (delta NTU) T 24 hours”) is 975.4 NTU and the “Change in Turbidity from T0 (delta NTU) Time 1 Hr” value (from here on “Change … (delta NTU) Time 1 Hr”) is reported as 22.4 NTU.
With `[Cu+2].[OH-].[OH-]` [copper hydroxide], in assay [2] (Day 63, rate 5 lbs/a (2.27 kg/a), mean of the counts), the “Shoot Incidence” value stood at 1.0. In addition, in assay [2], the “cankers, result in words” value was “appeared to prevent canker” and the “shoot blight incidence, result in words” value is “greatly reduced”.
For the compound `[H]/N=C(/N)N[C@H]1[C@H](O)[C@@H](O)[C@H](O[C@@H]2O[C@@H](C)[C@](O)(C=O)[C@H]2O[C@@H]2O[C@@H](CO)[C@H](O)[C@@H](O)[C@@H]2NC)[C@@H](N/C(N)=N\[H])[C@@H]1O` [streptomycin], in assay [2], the “cankers, result in words” value was “appeared to prevent canker” and the “shoot blight incidence, result in words” value was “greatly reduced”.
For the compound `O=C([O-])CC(O)(CC(=O)[O-])C(=O)[O-].O=C([O-])CC(O)(CC(=O)[O-])C(=O)[O-].[Zn+2].[Zn+2].[Zn+2]` [Example 7, zinc citrate], in assay [1], the “Change … (delta NTU) T 96 Hours” value worked out at 1007.2 NTU, the “Change … (delta NTU) T 18 hours” value is given as 948.2 NTU, the “Change … (delta NTU) T 24 hours” value was determined as 949.2 NTU and the “Change … (delta NTU) Time 1 Hr” value is reported as 20.7 NTU.
Take `O=C([O-])CC(O)(CC(=O)[O-])C(=O)[O-].[Ag+].[Ag+].[Ag+]` [Example 1, silver citrate]: in assay [1] (Table 1A, 1 hour), the “Change … (delta NTU) Time 1 Hr” value is on record as 15.1 NTU. Also, the “Change … (delta NTU) T 18 hours” value in assay [1] (Table 1A, 18 hours) came to 845.5 NTU. Besides, the “Change … (delta NTU) T 24 hours” value in assay [1] (Table 1A, 24 hours) stood at 887.5 NTU. For the same compound, the “Change … (delta NTU) T 96 Hours” value in assay [1] (Table 1A, 96 hours) was determined as 950.5 NTU.
